Measurements taken from ChEMBL document CHEMBL5212743, “Selectivity Literature for EUbOPEN Chemogenomics Library wave 3” (2023).

Key:
[1] = molecular target: T1, Gamma-aminobutyric acid receptor subunit alpha-1 (Homo sapiens) (UniProt P14867); assay: (§1) Selectivity interaction (GPCR panel (PDSP screen)) EUB0000334a GABRA1; conditions: at 10 µM
T1 sequence (whole entry): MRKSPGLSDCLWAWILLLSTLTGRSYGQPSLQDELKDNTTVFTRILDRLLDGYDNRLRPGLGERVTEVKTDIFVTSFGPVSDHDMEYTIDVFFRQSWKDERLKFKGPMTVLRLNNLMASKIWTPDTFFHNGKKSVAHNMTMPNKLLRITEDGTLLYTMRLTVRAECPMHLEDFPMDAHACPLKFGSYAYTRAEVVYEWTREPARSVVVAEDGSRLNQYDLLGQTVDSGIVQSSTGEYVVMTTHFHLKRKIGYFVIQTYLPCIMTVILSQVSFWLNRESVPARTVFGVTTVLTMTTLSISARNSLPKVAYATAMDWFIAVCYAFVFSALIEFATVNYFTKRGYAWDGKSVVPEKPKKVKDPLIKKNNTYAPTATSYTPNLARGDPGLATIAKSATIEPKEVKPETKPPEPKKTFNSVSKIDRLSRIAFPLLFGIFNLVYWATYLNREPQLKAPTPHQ

[2] = molecular target: Dual specificity tyrosine-phosphorylation-regulated kinase 1B (Homo sapiens, UniProt Q9Y463); assay: Selectivity interaction (KinomeScan (DiscoverX)) EUB0000334a DYRK1B; conditions: at 1 µM
[3] = molecular target: Rho-associated protein kinase 1 (Homo sapiens) (UniProt Q13464); assay: Selectivity interaction (KinomeScan (DiscoverX)) EUB0000334a ROCK1; conditions: at 1 µM
[4] = molecular target: T1, Gamma-aminobutyric acid receptor subunit alpha-1 (Homo sapiens); assay: as §1; conditions: at 10 µM; remark: listed apart in the source
[5] = molecular target: Histone-lysine N-methyltransferase NSD3 (Homo sapiens) (UniProt Q9BZ95); assay: Selectivity interaction (Methyltransferase panel) EUB0000198b NSD3; conditions: at 10 µM
[6] = molecular target: Protein arginine N-methyltransferase 7 (Homo sapiens) (UniProt Q9NVM4); assay: Selectivity interaction (Methyltransferase panel) EUB0000226b PRMT7; conditions: at 10 µM
[7] = molecular target: Myosin light chain kinase, smooth muscle (Homo sapiens) (UniProt Q15746); assay: Selectivity interaction (KinomScan Ambit) EUB0000622a MYLK; conditions: at 10 µM
[8] = molecular target: ALK tyrosine kinase receptor (Homo sapiens, UniProt Q9UM73); assay: Selectivity interaction (KinomScan Ambit) EUB0000622a ALK; conditions: at 10 µM
[9] = system: T2, Receptor-type tyrosine-protein kinase FLT3 (Homo sapiens), P36888 [D835Y]; assay: Selectivity interaction (KinomScan Ambit) EUB0000622a FLT3; conditions: at 10 µM
T2 sequence (whole entry): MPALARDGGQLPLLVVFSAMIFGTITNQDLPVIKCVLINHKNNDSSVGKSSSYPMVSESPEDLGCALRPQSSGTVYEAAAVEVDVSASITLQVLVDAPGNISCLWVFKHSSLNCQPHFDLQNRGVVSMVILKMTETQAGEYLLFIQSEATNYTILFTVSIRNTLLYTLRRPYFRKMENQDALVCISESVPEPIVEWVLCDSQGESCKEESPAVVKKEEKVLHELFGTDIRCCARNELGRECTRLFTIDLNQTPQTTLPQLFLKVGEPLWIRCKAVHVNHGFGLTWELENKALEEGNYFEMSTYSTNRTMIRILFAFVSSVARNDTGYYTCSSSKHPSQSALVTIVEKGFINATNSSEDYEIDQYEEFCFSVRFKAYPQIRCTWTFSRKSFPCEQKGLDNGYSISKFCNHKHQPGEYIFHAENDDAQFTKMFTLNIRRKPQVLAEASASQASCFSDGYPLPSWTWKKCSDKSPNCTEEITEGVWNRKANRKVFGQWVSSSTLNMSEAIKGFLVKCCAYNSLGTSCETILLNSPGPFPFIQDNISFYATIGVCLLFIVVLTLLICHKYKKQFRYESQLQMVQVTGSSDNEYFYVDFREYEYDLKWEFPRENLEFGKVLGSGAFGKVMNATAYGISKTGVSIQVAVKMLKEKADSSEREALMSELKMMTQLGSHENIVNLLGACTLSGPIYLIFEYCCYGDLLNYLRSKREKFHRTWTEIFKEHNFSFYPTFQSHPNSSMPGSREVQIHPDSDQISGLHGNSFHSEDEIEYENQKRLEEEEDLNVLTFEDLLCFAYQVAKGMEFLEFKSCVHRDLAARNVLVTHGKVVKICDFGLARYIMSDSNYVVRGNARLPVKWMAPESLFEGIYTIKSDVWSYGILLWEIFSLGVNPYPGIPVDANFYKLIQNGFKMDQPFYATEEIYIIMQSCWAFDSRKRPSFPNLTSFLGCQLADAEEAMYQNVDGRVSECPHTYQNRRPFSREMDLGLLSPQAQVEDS

[10] = molecular target: RAF proto-oncogene serine/threonine-protein kinase (Homo sapiens) (UniProt P04049); conditions: at 1 µM

Sequence of Dual specificity tyrosine-phosphorylation-regulated kinase 1B (Q9Y463 whole entry, looked up): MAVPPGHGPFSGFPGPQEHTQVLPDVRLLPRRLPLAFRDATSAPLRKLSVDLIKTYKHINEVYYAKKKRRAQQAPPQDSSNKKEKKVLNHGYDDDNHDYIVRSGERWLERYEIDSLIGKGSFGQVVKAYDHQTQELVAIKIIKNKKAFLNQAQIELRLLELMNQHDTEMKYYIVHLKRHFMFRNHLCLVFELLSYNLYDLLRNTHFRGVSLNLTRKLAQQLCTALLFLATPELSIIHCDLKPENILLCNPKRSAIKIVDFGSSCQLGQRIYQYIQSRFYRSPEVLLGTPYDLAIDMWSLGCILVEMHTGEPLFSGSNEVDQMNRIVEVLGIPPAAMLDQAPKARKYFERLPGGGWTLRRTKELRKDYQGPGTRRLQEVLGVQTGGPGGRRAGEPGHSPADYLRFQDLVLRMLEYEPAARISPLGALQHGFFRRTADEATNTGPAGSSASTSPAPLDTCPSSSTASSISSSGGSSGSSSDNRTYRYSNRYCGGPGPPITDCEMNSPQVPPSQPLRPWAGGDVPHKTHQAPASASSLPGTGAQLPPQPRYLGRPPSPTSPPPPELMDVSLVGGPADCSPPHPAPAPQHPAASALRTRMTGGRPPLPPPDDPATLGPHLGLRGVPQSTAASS
Sequence of Rho-associated protein kinase 1 (Homo sapiens) (Q13464 2-1354 limits assumed): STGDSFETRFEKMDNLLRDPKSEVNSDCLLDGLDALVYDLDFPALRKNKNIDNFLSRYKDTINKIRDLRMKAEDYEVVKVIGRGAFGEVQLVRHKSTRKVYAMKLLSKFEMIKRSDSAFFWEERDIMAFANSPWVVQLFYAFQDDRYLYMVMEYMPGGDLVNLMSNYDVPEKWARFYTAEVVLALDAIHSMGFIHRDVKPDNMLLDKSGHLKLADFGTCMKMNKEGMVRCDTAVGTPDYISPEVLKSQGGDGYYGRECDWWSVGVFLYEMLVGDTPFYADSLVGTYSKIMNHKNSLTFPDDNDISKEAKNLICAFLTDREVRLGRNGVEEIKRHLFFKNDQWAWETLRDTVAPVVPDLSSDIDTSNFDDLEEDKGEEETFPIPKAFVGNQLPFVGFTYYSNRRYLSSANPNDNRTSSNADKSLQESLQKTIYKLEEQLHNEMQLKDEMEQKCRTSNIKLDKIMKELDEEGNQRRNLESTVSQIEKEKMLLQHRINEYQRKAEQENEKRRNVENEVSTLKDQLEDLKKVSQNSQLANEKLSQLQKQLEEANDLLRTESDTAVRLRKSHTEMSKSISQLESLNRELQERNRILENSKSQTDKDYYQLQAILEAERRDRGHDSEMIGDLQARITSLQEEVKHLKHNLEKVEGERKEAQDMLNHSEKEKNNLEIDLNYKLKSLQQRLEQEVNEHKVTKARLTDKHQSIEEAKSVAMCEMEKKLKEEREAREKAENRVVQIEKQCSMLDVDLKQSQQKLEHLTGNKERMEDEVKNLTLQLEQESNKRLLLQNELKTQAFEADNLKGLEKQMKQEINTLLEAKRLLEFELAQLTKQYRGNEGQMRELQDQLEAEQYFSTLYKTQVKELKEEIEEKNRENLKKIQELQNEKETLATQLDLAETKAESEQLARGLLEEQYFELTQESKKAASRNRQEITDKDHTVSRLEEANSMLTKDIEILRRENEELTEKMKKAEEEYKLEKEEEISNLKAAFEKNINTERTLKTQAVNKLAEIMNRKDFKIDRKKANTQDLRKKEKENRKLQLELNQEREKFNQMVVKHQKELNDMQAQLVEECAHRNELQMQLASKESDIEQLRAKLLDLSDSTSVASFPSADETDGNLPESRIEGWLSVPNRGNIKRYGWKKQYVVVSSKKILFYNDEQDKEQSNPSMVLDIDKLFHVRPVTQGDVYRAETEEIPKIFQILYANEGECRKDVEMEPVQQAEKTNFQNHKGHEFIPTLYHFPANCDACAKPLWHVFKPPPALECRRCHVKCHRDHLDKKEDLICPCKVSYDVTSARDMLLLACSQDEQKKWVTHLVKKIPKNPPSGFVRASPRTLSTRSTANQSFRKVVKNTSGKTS
Sequence of Histone-lysine N-methyltransferase NSD3 (Homo sapiens) (Q9BZ95 whole entry): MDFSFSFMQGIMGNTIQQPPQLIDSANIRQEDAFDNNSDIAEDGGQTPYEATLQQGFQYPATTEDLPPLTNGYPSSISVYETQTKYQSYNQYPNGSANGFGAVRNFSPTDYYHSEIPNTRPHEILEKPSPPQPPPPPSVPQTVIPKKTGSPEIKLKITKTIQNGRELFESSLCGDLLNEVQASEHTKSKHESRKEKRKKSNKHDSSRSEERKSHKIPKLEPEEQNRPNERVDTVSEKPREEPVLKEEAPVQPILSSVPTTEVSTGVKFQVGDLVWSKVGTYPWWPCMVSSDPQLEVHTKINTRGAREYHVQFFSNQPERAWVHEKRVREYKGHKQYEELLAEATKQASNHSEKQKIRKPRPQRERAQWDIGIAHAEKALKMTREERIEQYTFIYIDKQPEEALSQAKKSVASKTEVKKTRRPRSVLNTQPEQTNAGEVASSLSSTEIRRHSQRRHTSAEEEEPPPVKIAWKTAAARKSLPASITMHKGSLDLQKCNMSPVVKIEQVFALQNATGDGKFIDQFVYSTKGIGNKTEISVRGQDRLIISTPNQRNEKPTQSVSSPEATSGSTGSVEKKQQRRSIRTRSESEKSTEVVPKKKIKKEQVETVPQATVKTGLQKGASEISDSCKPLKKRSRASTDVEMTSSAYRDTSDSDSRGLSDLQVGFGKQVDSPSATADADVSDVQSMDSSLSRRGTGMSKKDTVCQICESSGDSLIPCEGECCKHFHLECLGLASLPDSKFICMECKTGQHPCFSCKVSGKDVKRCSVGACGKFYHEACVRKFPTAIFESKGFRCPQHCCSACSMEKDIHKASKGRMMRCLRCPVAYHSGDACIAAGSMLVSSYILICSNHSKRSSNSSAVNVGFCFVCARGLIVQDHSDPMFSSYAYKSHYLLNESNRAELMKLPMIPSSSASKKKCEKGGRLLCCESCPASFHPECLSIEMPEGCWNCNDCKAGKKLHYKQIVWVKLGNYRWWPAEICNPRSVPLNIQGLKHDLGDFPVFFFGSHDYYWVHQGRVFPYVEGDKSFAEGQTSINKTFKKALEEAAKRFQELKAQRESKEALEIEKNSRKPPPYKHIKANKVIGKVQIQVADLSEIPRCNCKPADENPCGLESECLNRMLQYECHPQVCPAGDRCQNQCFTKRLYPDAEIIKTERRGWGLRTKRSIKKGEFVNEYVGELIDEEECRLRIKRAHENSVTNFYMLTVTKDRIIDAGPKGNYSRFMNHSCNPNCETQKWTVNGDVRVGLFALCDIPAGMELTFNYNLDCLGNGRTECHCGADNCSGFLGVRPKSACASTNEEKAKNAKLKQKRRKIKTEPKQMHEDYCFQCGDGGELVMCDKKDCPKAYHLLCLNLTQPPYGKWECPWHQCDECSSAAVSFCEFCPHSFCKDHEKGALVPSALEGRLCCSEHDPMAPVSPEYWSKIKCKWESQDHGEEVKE
Sequence of ALK tyrosine kinase receptor (Q9UM73 19-1620 limits assumed): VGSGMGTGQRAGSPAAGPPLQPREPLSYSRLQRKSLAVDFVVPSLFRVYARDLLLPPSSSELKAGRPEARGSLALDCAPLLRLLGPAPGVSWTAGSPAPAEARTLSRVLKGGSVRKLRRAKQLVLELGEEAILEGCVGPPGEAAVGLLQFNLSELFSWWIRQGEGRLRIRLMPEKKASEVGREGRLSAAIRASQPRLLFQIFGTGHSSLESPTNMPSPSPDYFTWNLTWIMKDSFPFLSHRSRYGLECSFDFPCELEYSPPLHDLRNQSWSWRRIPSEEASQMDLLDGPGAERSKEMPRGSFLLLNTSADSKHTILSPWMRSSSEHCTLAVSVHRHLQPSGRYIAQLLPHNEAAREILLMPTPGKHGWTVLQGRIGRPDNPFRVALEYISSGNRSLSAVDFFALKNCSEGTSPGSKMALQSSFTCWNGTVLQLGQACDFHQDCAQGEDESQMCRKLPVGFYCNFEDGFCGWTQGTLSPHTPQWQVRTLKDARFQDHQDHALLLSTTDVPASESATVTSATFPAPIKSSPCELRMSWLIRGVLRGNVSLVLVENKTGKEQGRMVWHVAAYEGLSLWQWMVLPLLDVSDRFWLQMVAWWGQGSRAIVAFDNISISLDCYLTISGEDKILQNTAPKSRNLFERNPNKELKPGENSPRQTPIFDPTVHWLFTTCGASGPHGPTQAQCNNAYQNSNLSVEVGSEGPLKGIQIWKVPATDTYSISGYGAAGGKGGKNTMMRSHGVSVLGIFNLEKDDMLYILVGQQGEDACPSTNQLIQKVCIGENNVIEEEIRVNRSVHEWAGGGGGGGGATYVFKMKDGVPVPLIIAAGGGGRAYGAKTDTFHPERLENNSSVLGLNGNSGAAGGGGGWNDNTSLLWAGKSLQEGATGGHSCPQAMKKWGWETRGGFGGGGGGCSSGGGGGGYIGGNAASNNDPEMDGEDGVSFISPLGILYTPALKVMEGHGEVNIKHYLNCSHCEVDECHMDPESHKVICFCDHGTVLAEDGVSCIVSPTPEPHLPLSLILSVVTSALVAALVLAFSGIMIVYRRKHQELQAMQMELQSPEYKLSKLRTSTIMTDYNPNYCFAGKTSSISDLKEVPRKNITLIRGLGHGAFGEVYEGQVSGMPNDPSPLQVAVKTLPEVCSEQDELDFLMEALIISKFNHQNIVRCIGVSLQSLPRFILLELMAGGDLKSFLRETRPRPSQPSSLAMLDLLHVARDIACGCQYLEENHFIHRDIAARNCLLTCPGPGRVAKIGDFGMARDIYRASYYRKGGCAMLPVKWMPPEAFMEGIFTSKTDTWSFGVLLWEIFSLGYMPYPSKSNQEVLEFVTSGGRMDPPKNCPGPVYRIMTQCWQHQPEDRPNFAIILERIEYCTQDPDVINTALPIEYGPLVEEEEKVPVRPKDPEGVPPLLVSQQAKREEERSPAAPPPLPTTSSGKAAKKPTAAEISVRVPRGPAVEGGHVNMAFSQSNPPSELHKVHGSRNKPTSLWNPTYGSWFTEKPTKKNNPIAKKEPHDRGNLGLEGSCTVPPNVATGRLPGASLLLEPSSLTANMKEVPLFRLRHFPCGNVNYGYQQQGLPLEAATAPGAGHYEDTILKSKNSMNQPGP

Compound: CN([C@@H]1CCc2c(CC(=O)O)c3cc(S(C)(=O)=O)ccc3n2C1)S(=O)(=O)c1ccc(F)cc1
- inhibition [1]: 45%
- % of control [2]: 36%
- % of control [3]: 6%
- inhibition [4]: 41%

Compound: O=C(NC[C@H](O)CN1CCc2ccccc2C1)c1ccnc(NC2CCC2)c1
- % of inhibition [5]: 75%

Compound: Nc1ncnc2c1ccn2[C@@H]1O[C@H]([C@H](O)c2ccccc2)[C@@H](O)[C@H]1O
- % activity remaining [6]: 75%

Compound: O=C(Nc1cccnc1)c1cc(-c2ccnc(F)c2)ccc1OCc1ccccc1
- % of control [7]: < 50%
- % of control [8]: < 50%
- % of control [9]: < 50%

Compound: OCCn1cc(-c2ccc3c(c2)CCC3=NO)c(-c2ccncc2)n1
- % of control [10]: 8%
